Data: publication PMC12018048, “Intranasal kisspeptin administration rapidly stimulates gonadotropin release in humans” (eBioMedicine, 2025)

System: plasma LH
Test: Intranasal kisspeptin-54, plasma LH in adult C57BL/6J male mice
Format: in vivo, mouse
Settings: intranasal, 25 min post administration, N = 2
Protocol: Saline (placebo) or kisspeptin-54 were intranasally administered using a customised and unsharpened 2 mm long and 0.3 mm wide hypodermic needle (BD PrecisionGlide™; 30G; ref. 305106). Male mice were restrained and a single volume of 30 μL of the solution was delivered in one randomly chosen nostril with either 0.9% saline or different concentrations of kisspeptin-54 (1, 3, 12.8, 30, or 50 nM; equivalent to 0.001–0.05 nmol/kg). The protocol involved N = 5 mice per group, except concentrations 12.8 nM where N = 6 and 30 nM where N = 7. […] LH levels were assessed using a tail-tip serial blood sampling as previously reported.[64]^,[65] Briefly, samples containing 4 μL of whole blood were collected every 10 min over a 70-min-long period from each animal. The first sampling point was taken as baseline LH level (−5 min), and saline or kisspeptin-54 were administered at timepoint 0 min. Whole blood was collected into Eppendorf tubes pre-loaded with 50 μL of 0.1 M phosphate-buffered saline (PBS)-0.05% Tween, thoroughly mixed, and snap-frozen with dry ice and stored at −80 °C.
LH levels were measured using an established in-house and ultrasensitive mouse LH ELISA method as previously validated.[66] A primary coating antibody (bovine LHβ subunit, 518B7; L. Sibley; University of California, UC Davis, RRID AB_2756886) was used at a 1:1000 dilution in combination with a detection primary antibody (rabbit LH antiserum, AFP240580Rb, RRID AB_2665533; NIDDK- NHPP) used at 1:10,000 dilution, and a secondary horseradish peroxidase-conjugated antibody (goat anti-rabbit; Vector Laboratories, PI-1000, RRID AB_2336198) used at 1:10,000 dilution. The assay standard curve used a mouse LH-RP (AFP5306A, A. F. Parlow, National Hormone and Peptide Program; supplied by Golden West BioSolutions, California, USA; catalogue # TLIA1053.03). The assay sensitivity of this LH ELISA was 0.04 ng/mL, intra-assay coefficient of variation 4.1%, and inter-assay coefficient of variation 7.3%.
Statistical analyses were performed using GraphPad Prism (version 9.4.1). Data are presented as mean ± SEM. Normality of the data was determined using the Shapiro–Wilk test. The analysis considered increment in LH levels when average post-administration values were above significance (P < 0.05) compared to basal levels (−5 min) using repeated measures two-way ANOVA with Fishers least significant difference (LSD) test. Integrated LH response to kisspeptin-54 administration as indicated using the area under the curve (AUC) analysis when all peaks were above baseline values. The difference in AUC between groups was compared by one-way ANOVA with Fisher’s LSD test. In all cases, P < 0.05 was considered statistically significant.

Dye-C-GTSLSPPPESSGSRQQPGLSAPHSRQIPAPQGAVLVQREKDLPNYNWNSFGLRF [kisspeptin-54-D2, Kisspeptin-54 labelled with a D2 fluorescent probe, developed by Cisbio Bioassays]
Plasma LH response to the fluorescently tagged peptide: robust LH increase
